The values below come from patent US10206394B2, “Herbicidal compounds” (Syngenta Participations AG, priority 2014, dated 2019).

Read-outs that look alike come from different tables or passages of the source.

Holding throughout (assay type): in vivo
One series has as its system Avena fatua (AVEFA). Put plainly: Glasshouse assay for herbicidal activity (pre- and post-emergence), percentage phytotoxicity. To be noted: Avena fatua, Rate 250 g/ha, 100%=total damage, 0%=no damage. The gist of the method:
(§1)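 Herbicide was applied to potted plants sown in standard soil, one day after sowing for PRE and after about 12 days for POST. Visual percentage damage ratings followed at 15 DAA (POST) and 20 DAA (PRE).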

Series [1] relates to Echinochloa crus-galli (ECHCG). The series is described as above. The following applies: Echinochloa crus-galli, Rate 250 g/ha, 100%=total damage, 0%=no damage. The procedure, abridged: as §1
Series [2] deals with Alopecurus myosuroides (ALOMY). The description is as above. To be noted: Alopecurus myosuroides, Rate 250 g/ha, 100%=total damage, 0%=no damage. The procedure, abridged: as §1
The next series relates to Lolium perenne (LOLPE). The description is as above. To be noted: Lolium perenne, Rate 250 g/ha, 100%=total damage, 0%=no damage. The procedure, abridged: as §1
For series [3], the system named is Winter Wheat variety 'Hereward'. The series can be described thus: Glasshouse assay for crop safety, post-emergence, +/- safener cloquintocet-mexyl (CQC), percentage phytotoxicity. To be noted: 250 g/ha, evaluated after 13 days, 100=total damage, 0=no damage; for Post-emergence Crop Selectivity, percentage phytotoxicity, Wheat +CQC: with safener cloquintocet-mexyl (CQC) seed treatment 0.5 g/kg seed; for Post-emergence Crop Selectivity, percentage phytotoxicity, Wheat − CQC: without safener cloquintocet-mexyl (CQC). From the text:
Test—Glasshouse Assay for Crop Safety.
Seeds of the Winter Wheat variety ‘Hereward’ were seed treated with a wettable powder formulation of the cereal herbicide safener, cloquintocet mexyl, at a rate of 0.5 grams per kilogram of dry seed prior to the initiation of glasshouse testing. Three seeds were sown per 1.5 inch plastic pot into a sandy loam soil at a depth of 1 cm, 8 days prior to application of the test compounds and was watered and grown under controlled conditions in a glasshouse (at 24/16° C., day/night; 14 hours light; 65% humidity). The plants were sprayed Post-emergence with an aqueous spray solution derived from the formulation of the technical active ingredient in acetone/water (50:50) solution containing 0.5% Tween 20 (polyoxyethelyene sorbitan monolaurate, CAS RN 9005-64-5).
The test plants were then grown in a glasshouse under controlled conditions (at 24/16° C., day/night; 14 hours light; 65% humidity) and watered twice daily. After 13 days for pre and post-emergence, the test was evaluated (100=total damage to plant; 0=no damage to plant).

Setting [4] is: post-emergence, 360 h, post-emergence, assessed visually 15 DAA, read-out: Post-emergence herbicidal activity (percentage phytotoxicity) AVEFA POST.
Setting [5] is: pre-emergence, 480 h, pre-emergence, assessed visually 20 DAA, read-out: Pre-emergence herbicidal activity (percentage phytotoxicity) AVEFA PRE.
Where [6] appears, read: post-emergence, 360 h, post-emergence, assessed visually 15 DAA, read-out: Post-emergence herbicidal activity (percentage phytotoxicity) ECHCG POST.
Where [7] appears, read: pre-emergence, 480 h, pre-emergence, assessed visually 20 DAA, read-out: Pre-emergence herbicidal activity (percentage phytotoxicity) ECHCG PRE.
Setting [8] is: post-emergence, 360 h, post-emergence, assessed visually 15 DAA, read-out: Post-emergence herbicidal activity (percentage phytotoxicity) ALOMY POST.
[9] abbreviates: pre-emergence, 480 h, pre-emergence, assessed visually 20 DAA, read-out: Pre-emergence herbicidal activity (percentage phytotoxicity) ALOMY PRE.
Where [10] appears, read: post-emergence, 360 h, post-emergence, assessed visually 15 DAA, read-out: Post-emergence herbicidal activity (percentage phytotoxicity) LOLPE POST.
The mark [11] stands for this setting: pre-emergence, 480 h, pre-emergence, assessed visually 20 DAA, read-out: Pre-emergence herbicidal activity (percentage phytotoxicity) LOLPE PRE.

For the compound `Cc1cc(C)c(C2C(=O)CC(CC(=O)NC3CC3)C2=O)c(C)c1` (stereo not drawn) [Compound A15], the pest or weed control at 250 g/ha worked out at 80% in the series on Avena fatua (AVEFA) (setting [4]); 50% with Avena fatua (AVEFA) (setting [5]); 100% in series [1] (setting [6]); 100% in series [1] (setting [7]); 80% in series [2] (setting [8]); 80% in series [2] (setting [9]). Besides, the pest or weed control at 250 g/ha in the series with Lolium perenne (LOLPE) (setting [10]) and with Lolium perenne (LOLPE) (setting [11]) was 100% throughout. Also, the “Post-emergence Crop Selectivity, percentage phytotoxicity, Wheat +CQC” value in series [3] stood at 20%. For the same compound, the “Post-emergence Crop Selectivity, percentage phytotoxicity, Wheat − CQC” value in series [3] stood at 20%.

Take `CCC(C)NC(=O)CC1CC(=O)C(c2c(C)cc(C)cc2C)C1=O` (stereo not drawn) [Compound A3]: the pest or weed control at 250 g/ha in the series with Avena fatua (AVEFA) (setting [4]) is 90%; with Avena fatua (AVEFA) (setting [5]) it was 90%; in series [1] (setting [6]) it was 90%; in series [1] (setting [7]), 100%; in series [2] (setting [8]), 90%; in series [2] (setting [9]), 100%. In addition, the pest or weed control at 250 g/ha was 90% in the series on Lolium perenne (LOLPE) (setting [10]) and 100% in the series on Lolium perenne (LOLPE) (setting [11]). Also, the “Post-emergence Crop Selectivity, percentage phytotoxicity, Wheat +CQC” value in series [3] is on record as 10%. The “Post-emergence Crop Selectivity, percentage phytotoxicity, Wheat − CQC” value in series [3] was 60%.

In the case of `CC#Cc1cc(C)c(C2C(=O)CC(CC(=O)NCC(=O)C(C)(C)C)C2=O)c(C)c1` (stereo not drawn) [Compound A59], the pest or weed control at 250 g/ha in the series with Avena fatua (AVEFA) (setting [4]) was found to be 90%; in the series on Avena fatua (AVEFA) (setting [5]), 70%; in series [1] (setting [6]), 90%; in series [1] (setting [7]) it was 90%; in series [2] (setting [8]) it was 90%; in series [2] (setting [9]), 100%. Further, the pest or weed control at 250 g/ha in the series on Lolium perenne (LOLPE) (setting [10]) and with Lolium perenne (LOLPE) (setting [11]) was 70% in each case. Moreover, the “Post-emergence Crop Selectivity, percentage phytotoxicity, Wheat +CQC” value in series [3] turned out to be 50%. Besides, in series [3], the “Post-emergence Crop Selectivity, percentage phytotoxicity, Wheat − CQC” value is recorded as 80%.

With `CCCN(C)C(=O)CC1CC(=O)C(c2c(C)cc(C)cc2C)C1=O` (stereo not drawn) [Compound A25], the pest or weed control at 250 g/ha in the series with Avena fatua (AVEFA) (setting [4]) amounted to 70%; in the series on Avena fatua (AVEFA) (setting [5]) it was 70%; in series [1] (setting [6]), 90%; in series [1] (setting [7]) it was 80%; in series [2] (setting [8]), 70%; in series [2] (setting [9]) it was 70%. In addition, the pest or weed control at 250 g/ha with Lolium perenne (LOLPE) (setting [10]) and with Lolium perenne (LOLPE) (setting [11]) was 90% in each case. Also, the “Post-emergence Crop Selectivity, percentage phytotoxicity, Wheat +CQC” value in series [3] stood at 0%. Moreover, the “Post-emergence Crop Selectivity, percentage phytotoxicity, Wheat − CQC” value in series [3] was found to be 40%.

As for `CCCCNC(=O)CC1CC(=O)C(c2c(C)cc(C)cc2C)C1=O` (stereo not drawn) [Compound A12], the pest or weed control at 250 g/ha in the series with Avena fatua (AVEFA) (setting [4]) was determined as 80%; in the series with Avena fatua (AVEFA) (setting [5]) it was 70%; in series [1] (setting [6]) it was 80%; in series [1] (setting [7]) it was 100%; in series [2] (setting [8]), 100%; in series [2] (setting [9]) it was 90%. Moreover, the pest or weed control at 250 g/ha in the series on Lolium perenne (LOLPE) (setting [10]) is 90%; in the series with Lolium perenne (LOLPE) (setting [11]), 100%. In series [3], the “Post-emergence Crop Selectivity, percentage phytotoxicity, Wheat +CQC” value was found to be 0%. For the same compound, the “Post-emergence Crop Selectivity, percentage phytotoxicity, Wheat − CQC” value in series [3] is reported as 70%.

As for `Cc1cc(-c2ncc(Cl)cc2F)cc(C)c1C1C(=O)CC(CC(=O)NC(C)(C)C)C1=O` (stereo not drawn) [Compound A39, N-tert-butyl-2-[3-[4-(5-chloro-3-fluoro-2-pyridyl)-2,6-dimethyl-phenyl]-2,4-dioxo-cyclopentyl]acetamide], the pest or weed control at 250 g/ha (in the series on Avena fatua (AVEFA) (setting [4]); in the series on Avena fatua (AVEFA) (setting [5]); in series [1] (setting [6]); in series [1] (setting [7]); in series [2] (setting [8]); in series [2] (setting [9])) was 100% in each case. Besides, the pest or weed control at 250 g/ha in the series with Lolium perenne (LOLPE) (setting [10]) and with Lolium perenne (LOLPE) (setting [11]) was 100% throughout. Further, the “Post-emergence Crop Selectivity, percentage phytotoxicity, Wheat +CQC” value in series [3] worked out at 50%. In series [3], the “Post-emergence Crop Selectivity, percentage phytotoxicity, Wheat − CQC” value is recorded as 80%.
